{
  "source": "patent US20100310685A1",
  "about": "“PUPICIDAL AND LARVICIDAL COMPOSITION” (priority 2008, published 2010)",
  "tested_on": "pupae of Nematocera Diptera (for example mosquitoes)",
  "test": "specific research on pupicidal action",
  "conditions": "in vivo",
  "data": [
    {"smiles": "CCCCCCCCCCCCCCCCO", "note": "[cetyl alcohol, 1-hexadecanol]", "values": [
      {"measurement": "pupicidal action (kills pupae)", "result": "excellent pupicide"}
    ]}
  ]
}
